Values quoted from earlier work, collected in US6524619B2, “Dosage forms useful for modifying conditions and functions associated with hearing loss and/or tinnitus” (Chronorx, Inc., priority 2000, dated 2003).
Read-outs that look alike come from different tables or passages of the source.

Key:
senile deafness = settings: 1 microgram/day for 6 to 10 months, 12 patients suspected of abnormal bone metabolism
[1] = tested on: blood viscosity and red cell membrane lipid peroxidation; settings: 300 mg tid 3 months, Type 2 diabetes mellitus
[2] = tested on: hydrogen peroxide-induced platelet aggregation
[3] = not given; remark: listed apart in the source
[4] = one small study
[5] = levels up to 1 mg per day
[6] = humans, 200 mg oral dose
[7] = rats, oral (C14) LA
[8] = tested on: bovine aortic endothelial cells (BAECs); settings: LA added before AGE exposure
[9] = tested on: outer cochlear hair cells; settings: rat, postmortem
GSHPx [10] = settings: within 30 minutes, exogenously administered
[11] = 3 mg ingested, within 20 min
[12] = 80 mg orally
NMDA receptor = settings: rat, iontophoresis
[13] = tested on: noise-induced permanent hearing threshold shifts (NIPTS); settings: 167 mg elemental Mg^2+ daily, 2 months, 300 recruits
[14] = in vivo
RBC GSH system = settings: selenium treatment
peritoneal macrophages = settings: mice
tinnitus and SNHL = settings: marginally Zn^2+ deficient elderly adults
[15] = not given; remark: listed apart in the source
red cell membrane = settings: 300 mg tid after meals for 3 months
GSHPx [16] = settings: following supplementation
[17] = not given; remark: listed apart in the source
[18] = 100 mg oral

For `C=C1/C(=C\C=C2/CCC[C@]3(C)[C@@H]([C@H](C)CCCC(C)C)CC[C@@H]23)C[C@@H](O)C[C@@H]1O` [1 alpha-(OH)D3], the hearing improvement (senile deafness) is given as “hearing improvement in six ears (four patients)”.
For `Cc1c(C)c2c(c(C)c1OC(=O)c1cccnc1)CC[C@@](C)(CCC[C@H](C)CCC[C@H](C)CCCC(C)C)O2` [Alpha-tocopherol nicotinate, alpha tocopherol nicotinate], the “reduction of malondialdehyde (MDA) in red cell membrane” value [1] is listed as 0.17 ± 0.13 nmol/L, the “reduction of blood viscosity” value ([1]; gamma=1.5 s(−1)) is listed as −2.23 +/−2.82 and the “inhibitory effect upon hydrogen peroxide-induced platelet aggregation” value [2] is listed as “greater than that of either vitamin E alone or the simultaneous use of vitamin E and nicotinic acid”.
For `CC(C)(C)[C@]1(O)CC2OC(=O)CC23C(=O)OC2OC(=O)[C@H](O)C231` (some centres unmarked) [Bilobalide], the “bioavailability coefficient (FAUC), mean” value (given orally during fasting) is listed as 0.79(+/−0.3).
In the case of `COC1=C(OC)C(=O)C(C/C=C(\C)CC/C=C(\C)CC/C=C(\C)CC/C=C(\C)CC/C=C(\C)CC/C=C(\C)CC/C=C(\C)CC/C=C(\C)CC/C=C(\C)CCC=C(C)C)=C(C)C1=O` [CoQ10, Coenzyme Q10], the “increase of CoQ10 in plasma” value ([3]; granular preparations) is listed as 168% and the “elevation of CoQ10 in plasma” value ([3]; supplemental oil-based capsules) is listed as 178%.
For `[Cr]` [Cr, Chromium], the “average apparent net absorption of Cr” value [4] is given as 1.8% and the signs of toxicity [5] is given as “no documented signs of toxicity”.
For `C[C@@H]1C(=O)O[C@H]2C[C@@]34[C@H]5C[C@@H](C(C)(C)C)[C@]36[C@@H](OC(=O)[C@@H]6O)O[C@@]4(C(=O)O5)[C@]21O` [Ginkgolide A], the “bioavailability coefficient (FAUC), mean” value (given orally during fasting) is given as 0.80 (+/−0.09).
In the case of `CC1C(=O)OC2C(O)C34C5CC(C(C)(C)C)C36C(OC(=O)C6O)OC4(C(=O)O5)C12O` (centres unmarked) [Ginkgolide B], the “bioavailability coefficient (FAUC), mean” value (in vivo, po) is given as 0.88(+/−0.21).
For `O=C(O)CCCCC1CCSS1` (centres unmarked) [LA, 1,2-dithiolane-3-pentanoic acid], the absolute bioavailability [6] is listed as 29.1+/−10.3%, the “plasma concentration-time curve area (FAUC) relative to intravenous administration” value [7] is listed as 66% and the “depletion of GSH and ascorbic acid” value [8] is listed as “completely prevents depletion of GSH and ascorbic acid”.
In the case of `COc1ccc2[nH]cc(CCNC(C)=O)c2c1` [Melatonin, N-acetyl-5-methoxytryptamine], the “prolongation of hair cell activity after death compared to untreated animals” value [9] is given as “up to 7 times”, the “rise in GSHPx activity in the brain” value (GSHPx [10]) is given as 2 fold and the serum melatonin [11] is given as 3561 ± 1201 pg/mL. The “absorption constant (ka)” value [12] was 1.72 h⁻¹, the “elimination constant (kel)” value [12] was 0.87 h⁻¹ and the “time of peak serum melatonin after administration” value [12] was 60 to 150 min. The “time peak serum melatonin remains stable” value [12] was “approximately 1.5 hours” and the “excitatory response of the cortical striatum” value (“excitatory response” for short) (NMDA receptor) was “potent attenuation”.
In the case of `[Mg+2]` [Mg^2+, Magnesium], the “NIPTS frequency and severity” value [13] is listed as “significantly more frequent and more severe in the placebo group”, the “excitatory response” value (NMDA receptor) is listed as “potent attenuation” and the “maximum intestinal bulk absorption” value [14] is listed as 8 mEq per meal.
In the case of `O=C(O)c1cccnc1` [Nicotinic acid, reference compound], the “inhibitory effect upon hydrogen peroxide-induced platelet aggregation” value [2] is given as “no inhibitory effect”.
For `[Se]` [Selenium], the “elevation of RBC GSHPx” value (RBC GSH system) is given as 64%, the “reduction in the RBC oxidized GSH content” value (RBC GSH system) is given as 39% and the “increase in GSH content” value (RBC GSH system; RBC) is given as 11%. The “increase in glutathione reductase activities” value (RBC GSH system; RBC) was 57%, the “increase in GSH content in peritoneal macrophages” value (peritoneal macrophages) was 36% and the “increase in GSHPx activity in peritoneal macrophages” value (peritoneal macrophages) was 30%. The “reduction in cell-mediated oxidation of LDL and aortic atherosclerotic lesions” value (peritoneal macrophages) was 46%.
For `[Zn+2]` [Zn^2+, Zinc], the “reduction of tinnitus and SNHL” value (tinnitus and SNHL) is listed as “about one-third”, the “increase of mean plasma Zn^+2 above pre-load levels” value ([15]; 11-fold increase in intake) is listed as 37% and the “ingested Zn^+2 entering the plasma” value ([15]; in vivo) is listed as “About 37%”. The “time by which gastrointestinal absorption is essentially completed” value ([15]; in vivo) was no more than 4 h and the “excitatory response” value (NMDA receptor) was “potent attenuation”.
For `Cc1c(C)c2c(c(C)c1O)CC[C@@](C)(CCC[C@H](C)CCC[C@H](C)CCCC(C)C)O2` [alpha-tocopherol, D, alpha-tocopherol], the “reduction of lipid peroxidation stress in red cell membrane (MDA)” value (red cell membrane) is listed as 0.17 ± 0.13 nmol and the GSHPx activities (GSHPx [16]) is listed as “increase as much as twofold”.
In the case of `NC(=O)c1cccnc1` [standard nicotinamide, nicotinamide], the “increase in the AUC” value ([17]; 10-fold increase in the dose) is listed as 62 fold and the “AUC relative to Enduramide” value ([17]; higher doses) is listed as 1.7 times.
For d5-CoQ10, the “time of second plasma peak after dosing” value ([18]; most of the subjects) is given as 24 h and the “mean plasma CoQ10 level peak” value ([18]; sixteen healthy male subjects) is given as 1.004+/−0.37 micrograms/ml.
